What was measured:
Assay in all cases: Test D controlled growth environment herbicide test, pre- and postemergence
Format in all cases: in vivo
[1] = test system: bluegrass (annual bluegrass, Poa annua)
Description: (§1) Seeds of plant species selected from bluegrass (annual bluegrass, Poa annua), blackgrass (Alopecurus myosuroides), Canada thistle (Cirsium arvense), canarygrass (Phalaris minor), chickweed (common chickweed, Stellaria media), geranium, cutleaf (cutleaf geranium, Geranium dissectum), galium (catchweed bedstraw, Galium aparine), bromegrass, downy (downy bromegrass, Bromus tectorum), field poppy (Papaver rhoeas), field violet (Viola arvensis), foxtail, green (green foxtail, Setaria viridis), deadnettle (henbit deadnettle, Lamium amplexicaule), ryegrass, Italian (Italian ryegrass, Lolium multiflorum), kochia (Kochia scoparia), lambsquarters (Chenopodium album), oilseed rape (Brassica napus), pigweed (Amaranthus retroflexus), chamomile (scentless chamomile, Matricaria inodora), Russian thistle (Salsola kali), speedwell (bird's-eye speedwell, Veronica persica), barley, spring (spring barley, Hordeum vulgare), wheat, spring (spring wheat, Triticum aestivum), buckwheat, wild (wild buckwheat, Polygonum convolvulus), mustard, wild (wild mustard, Sinapis arvensis), oat, wild (wild oat, Avena fatua), radish, wild (wild radish, Raphanus raphanistrum), windgrass (Apera spica-venti), barley, winter (winter barley, Hordeum vulgare), and wheat, winter (winter wheat, Triticum aestivum) were planted into a silt loam soil and treated preemergence with test chemicals formulated in a non-phytotoxic solvent mixture which included a surfactant.
(§2) At the same time, these species were planted in pots containing Redi-Earth® planting medium (Scotts Company, 14111 Scottslawn Road, Marysville, Ohio 43041) comprising spaghnum peat moss, vermiculite, wetting agent and starter nutrients and treated with postemergence applications of the test chemicals formulated in the same manner. Plants ranged in height from 2 to 18 cm (1- to 4-leaf stage). Treated plants and controls were maintained in a controlled growth environment for 14 to 21 d after which time all species were compared to controls and visually evaluated. Plant response ratings, summarized in Table D, are based on a scale of 0 to 100 where 0 is no effect and 100 is complete control. A dash (-) response means no test result.

[2] = test system: barley, spring (spring barley, Hordeum vulgare)
Description: as §1, §2

[3] = test system: speedwell (bird's-eye speedwell, Veronica persica)
Description: as §1, §2

[4] = test system: blackgrass (Alopecurus myosuroides)
Description: as §1, §2

[5] = test system: radish, wild (wild radish, Raphanus raphanistrum)
Description: as §1, §2

[6] = test system: field poppy (Papaver rhoeas)
Description: as §1, §2

[7] = test system: mustard, wild (wild mustard, Sinapis arvensis)
Description: as §1, §2

[8] = test system: oat, wild (wild oat, Avena fatua)
Description: as §1, §2

kochia (Kochia scoparia) = test system: kochia (Kochia scoparia)
Description: as §1, §2

[9] = test system: pigweed (Amaranthus retroflexus)
Description: as §1, §2

[10] = test system: wheat, spring (spring wheat, Triticum aestivum)
Description: as §1, §2

[11] = test system: barley, winter (winter barley, Hordeum vulgare)
Description: as §1, §2

[12] = test system: Russian thistle (Salsola kali)
Description: as §1, §2

[13] = Postemergence, 31 g ai/ha, scale 0 to 100 (0 no effect, 100 complete control)
[14] = Postemergence, 125 g ai/ha, visual rating on scale 0 (no effect) to 100 (complete control), 14 to 21 d
[15] = Postemergence, 250 g ai/ha, scale 0 to 100 (0 no effect, 100 complete control)
[16] = Preemergence, 62 g ai/ha, scale 0 to 100 (0 no effect, 100 complete control)
[17] = Preemergence, 125 g ai/ha, scale 0 to 100 (0 no effect, 100 complete control)
[18] = Preemergence, 250 g ai/ha, scale 0 to 100, 0 no effect, 100 complete control
[19] = postemergence, 62 g ai/ha, scale 0 to 100, 0 no effect, 100 complete control

Structure (SMILES): Cn1nc(Br)c(O)c(-c2cccc3ccccc23)c1=O [Compound 20]
- Bluegrass plant response rating [1, 13]: 10
- Plant response rating, Bluegrass [1, 14]: 30
- Plant response rating, Bluegrass [1, 15]: 40
- Plant response rating (scale of 0 to 100), Bluegrass ([1]; Preemergence, 31 g ai/ha): 10
- Plant response rating, Bluegrass [1, 16]: 15
- Plant response rating, Bluegrass [1, 17]: 25
- Bluegrass plant response rating [1, 18]: 35
- Plant response rating, Bluegrass [1, 19]: 25
- Plant response rating, Barley, Spring [2, 13]: 0
- Plant response rating, Barley, Spring [2, 14]: 0
- Plant response rating, Barley, Spring [2, 15]: 0
- Plant response rating (scale of 0 to 100), Barley, Spring ([2]; Preemergence, 31 g ai/ha): 0
- Plant response rating, Barley, Spring [2, 16]: 0
- Plant response rating, Barley, Spring [2, 17]: 0
- Barley, Spring plant response rating [2, 18]: 0
- Plant response rating, Barley, Spring [2, 19]: 0
- Speedwell plant response rating [3, 13]: 5
- Plant response rating, Speedwell [3, 14]: 100
- Plant response rating, Speedwell [3, 15]: 100
- Plant response rating (scale of 0 to 100), Speedwell ([3]; Preemergence, 31 g ai/ha): 70
- Plant response rating, Speedwell [3, 16]: 70
- Plant response rating, Speedwell [3, 17]: 70
- Plant response rating, Speedwell [3, 18]: 90
- Plant response rating, Speedwell [3, 19]: 15
- Blackgrass plant response rating [4, 13]: 15
- Plant response rating, Blackgrass [4, 14]: 50
- Plant response rating, Blackgrass [4, 15]: 60
- Plant response rating (scale of 0 to 100), Blackgrass ([4]; Preemergence, 31 g ai/ha): 20
- Plant response rating, Blackgrass [4, 16]: 40
- Plant response rating, Blackgrass [4, 17]: 60
- Blackgrass plant response rating [4, 18]: 75
- Plant response rating, Blackgrass [4, 19]: 40
- Radish, Wild plant response rating [5, 13]: 50
- Plant response rating, Radish, Wild [5, 14]: 70
- Plant response rating, Radish, Wild [5, 15]: 65
- Plant response rating (scale of 0 to 100), Radish, Wild ([5]; Preemergence, 31 g ai/ha): 0
- Plant response rating, Radish, Wild [5, 16]: 0
- Plant response rating, Radish, Wild [5, 17]: 50
- Plant response rating, Radish, Wild [5, 18]: 65
- Plant response rating, Radish, Wild [5, 19]: 40
- Field Poppy plant response rating [6, 13]: 30
- Plant response rating, Field Poppy [6, 14]: 100
- Plant response rating, Field Poppy [6, 15]: 100
- Plant response rating (scale of 0 to 100), Field Poppy ([6]; Preemergence, 31 g ai/ha): 70
- Plant response rating, Field Poppy [6, 16]: 70
- Plant response rating, Field Poppy [6, 17]: 95
- Plant response rating, Field Poppy [6, 18]: 100
- Plant response rating, Field Poppy [6, 19]: 60
- Mustard, Wild plant response rating [7, 13]: 75
- Plant response rating, Mustard, Wild [7, 14]: 100
- Plant response rating, Mustard, Wild [7, 15]: 100
- Plant response rating (scale of 0 to 100), Mustard, Wild ([7]; Preemergence, 31 g ai/ha): 25
- Plant response rating, Mustard, Wild [7, 16]: 35
- Plant response rating, Mustard, Wild [7, 17]: 100
- Plant response rating, Mustard, Wild [7, 18]: 100
- Plant response rating, Mustard, Wild [7, 19]: 100
- Oat, Wild plant response rating [8, 13]: 20
- Plant response rating, Oat, Wild [8, 14]: 60
- Plant response rating, Oat, Wild [8, 15]: 75
- Plant response rating (scale of 0 to 100), Oat, Wild ([8]; Preemergence, 31 g ai/ha): 35
- Plant response rating, Oat, Wild [8, 16]: 65
- Plant response rating, Oat, Wild [8, 17]: 85
- Plant response rating, Oat, Wild [8, 18]: 95
- Plant response rating, Oat, Wild [8, 19]: 25
- Kochia plant response rating (kochia (Kochia scoparia); [13]): 35
- Plant response rating, Kochia (kochia (Kochia scoparia); [14]): 85
- Plant response rating, Kochia (kochia (Kochia scoparia); [15]): 100
- Plant response rating (scale of 0 to 100), Kochia (kochia (Kochia scoparia); Preemergence, 31 g ai/ha): 0
- Plant response rating, Kochia (kochia (Kochia scoparia); [16]): 25
- Plant response rating, Kochia (kochia (Kochia scoparia); [17]): 70
- Plant response rating, Kochia (kochia (Kochia scoparia); [18]): 90
- Plant response rating, Kochia (kochia (Kochia scoparia); [19]): 65
- Pigweed plant response rating [9, 13]: 80
- Plant response rating, Pigweed [9, 14]: 100
- Plant response rating, Pigweed [9, 15]: 100
- Plant response rating (scale of 0 to 100), Pigweed ([9]; Preemergence, 31 g ai/ha): 30
- Plant response rating, Pigweed [9, 16]: 40
- Plant response rating, Pigweed [9, 17]: 100
- Plant response rating, Pigweed [9, 18]: 100
- Plant response rating, Pigweed [9, 19]: 100
- Wheat, Spring plant response rating [10, 13]: 0
- Plant response rating, Wheat, Spring [10, 14]: 15
- Plant response rating, Wheat, Spring [10, 15]: 20
- Plant response rating (scale of 0 to 100), Wheat, Spring ([10]; Preemergence, 31 g ai/ha): 0
- Plant response rating, Wheat, Spring [10, 16]: 15
- Plant response rating, Wheat, Spring [10, 17]: 25
- Plant response rating, Wheat, Spring [10, 18]: 45
- Plant response rating, Wheat, Spring [10, 19]: 15
- Plant response rating, Barley, Winter [11, 13]: 0
- Plant response rating, Barley, Winter [11, 14]: 0
- Plant response rating, Barley, Winter [11, 15]: 0
- Plant response rating (scale of 0 to 100), Barley, Winter ([11]; Preemergence, 31 g ai/ha): 0
- Plant response rating, Barley, Winter [11, 16]: 0
- Plant response rating, Barley, Winter [11, 17]: 0
- Barley, Winter plant response rating [11, 18]: 0
- Plant response rating, Barley, Winter [11, 19]: 0
- Russian Thistle plant response rating [12, 13]: 70
- Plant response rating, Russian Thistle [12, 14]: 80
- Plant response rating, Russian Thistle [12, 15]: 98
- Plant response rating (scale of 0 to 100), Russian Thistle ([12]; Preemergence, 31 g ai/ha): 0
- Plant response rating, Russian Thistle [12, 16]: 30
- Plant response rating, Russian Thistle [12, 17]: 40
- Plant response rating, Russian Thistle [12, 18]: 70
- Plant response rating, Russian Thistle [12, 19]: 75

Reference: patent publication US10597388B2, “Pyridazinone herbicides” (FMC CORPORATION, priority 2014, dated 2020)
